Reference: ChEMBL document CHEMBL1150484, “Structure-based design of achiral anthranilamides as P2/P2 surrogates for symmetry-based HIV protease inhibitors: design, synthesis, X-ray structure, enzyme inhibition and antiviral activity” (Bioorg Med Chem Lett, 1995)

Key:
[1] = Partition coefficient (logP); assay type: physicochemical; conditions: octanol/water
[2] = target: T1, Human immunodeficiency virus type 1 protease (Human immunodeficiency virus 1, UniProt Q72874); assay: Tested for inhibition of HIV protease using fluorogenic substrate
CCRF-CEM = assay: Concentration required to produce 50 percent inhibition of HIV-1 infection in CEM cells; assay type: functional, cell-based; conditions: Homo sapiens
[3] = Tested for cytotoxicity in HIV-1 infected human T-lymphocyte cell culture; assay type: functional; conditions: read-out: TC50 (the source's name)
[4] = target: T1, Human immunodeficiency virus type 1 protease; assay: Tested for inhibition of HIV protease using fluorogenic substrate; insoluble

| SMILES | logP ([1]; read-out: logP) | Ki [2] [nM] | EC50 (CCRF-CEM) [nM] | logP [1] | CC50 [3] [nM] | Ki [4] |
| --- | --- | --- | --- | --- | --- | --- |
| Cc1nccnc1C(=O)Nc1ccccc1C(=O)N[C@@H](Cc1ccccc1)[C@H](O)[C@H](O)[C@H](Cc1ccccc1)NC(=O)c1ccccc1NC(=O)c1nccnc1C | 5.66 | > 10000 |  |  |  |  |
| O=C(Nc1ccccc1C(=O)N[C@@H](Cc1ccccc1)C[C@H](O)[C@H](Cc1ccccc1)NC(=O)c1ccccc1NC(=O)OCc1ccncc1)OCc1ccncc1 | 5.39 | 0.45 | 2600 |  |  |  |
| O=C(COCc1ccccc1)Nc1ccccc1C(=O)N[C@@H](Cc1ccccc1)[C@H](O)[C@H](O)[C@H](Cc1ccccc1)NC(=O)c1ccccc1NC(=O)COCc1ccccc1 | 6.91 | > 10000 |  |  |  |  |
| O=CNc1ccccc1C(=O)N[C@@H](Cc1ccccc1)[C@H](O)[C@H](O)[C@H](Cc1ccccc1)NC(=O)c1ccccc1NC=O | 4.89 | 1.2 | 900 |  |  |  |
| O=C(Nc1c(Cl)cccc1C(=O)N[C@@H](Cc1ccccc1)[C@H](O)[C@H](O)[C@H](Cc1ccccc1)NC(=O)c1cccc(Cl)c1NC(=O)OCc1ccccc1)OCc1ccccc1 |  |  |  | 9.34 |  |  |
| O=C(Nc1ccccc1C(=O)N[C@@H](Cc1ccccc1)C[C@H](O)[C@H](Cc1ccccc1)NC(=O)c1ccccc1NC(=O)OCc1cccnc1)OCc1cccnc1 | 5.86 | 0.26 | 140 |  |  |  |
| O=C(Nc1ncccc1C(=O)N[C@@H](Cc1ccccc1)[C@H](O)[C@H](O)[C@H](Cc1ccccc1)NC(=O)c1cccnc1NC(=O)OCc1ccccc1)OCc1ccccc1 | 7.87 |  |  |  |  |  |
| O=C(Nc1ccccc1C(=O)N[C@@H](Cc1ccccc1)[C@H](O)[C@H](O)[C@H](Cc1ccccc1)NC(=O)c1ccccc1NC(=O)OCc1ccccc1)OCc1ccccc1 | 8.16 |  | > 100000 |  |  |  |
| CC(=O)Nc1ccccc1C(=O)N[C@@H](Cc1ccccc1)[C@H](O)[C@H](O)[C@H](Cc1ccccc1)NC(=O)c1ccccc1NC(C)=O | 4.32 |  | > 100000 |  |  |  |
| O=C(Nc1ccccc1C(=O)N[C@@H](Cc1ccccc1)C[C@H](O)[C@H](Cc1ccccc1)NC(=O)c1ccccc1NC(=O)OCc1ccccc1)OCc1ccccc1 | 8.28 |  |  |  |  |  |
| O=C(Nc1ccccc1C(=O)N[C@@H](Cc1ccccc1)C[C@H](O)[C@H](Cc1ccccc1)NC(=O)c1ccccc1NC(=O)OCc1ccccn1)OCc1ccccn1 | 6.61 | 0.07 | 56 |  | > 50000 |  |
| O=C(CO)Nc1ccccc1C(=O)N[C@@H](Cc1ccccc1)[C@H](O)[C@H](O)[C@H](Cc1ccccc1)NC(=O)c1ccccc1NC(=O)CO | 2.52 | 20 | 60000 |  |  |  |
| O=C(Nc1c(O)cccc1C(=O)N[C@@H](Cc1ccccc1)[C@H](O)[C@H](O)[C@H](Cc1ccccc1)NC(=O)c1cccc(O)c1NC(=O)OCc1ccccc1)OCc1ccccc1 | 7.96 |  |  |  |  |  |
| CCOC(=O)Nc1ccccc1C(=O)N[C@@H](Cc1ccccc1)[C@H](O)[C@H](O)[C@H](Cc1ccccc1)NC(=O)c1ccccc1NC(=O)OCC | 6.14 |  |  |  |  | Insoluble |
| Cc1cccc(C(=O)N[C@@H](Cc2ccccc2)[C@H](O)[C@H](O)[C@H](Cc2ccccc2)NC(=O)c2cccc(C)c2NC(=O)OCc2ccccc2)c1NC(=O)OCc1ccccc1 |  |  |  | 9.24 |  |  |
| O=C(Nc1ccccc1C(=O)N[C@@H](Cc1ccccc1)[C@H](O)[C@H](O)[C@H](Cc1ccccc1)NC(=O)c1ccccc1NC(=O)OCc1ccccn1)OCc1ccccn1 | 6.49 |  | 13 |  | 35000 |  |
